Experimental data from ChEMBL document CHEMBL4507301 (2021).

Experiments:
[1] = system: Tyrosine-protein kinase ABL1 (Homo sapiens), P00519 [F317L]; settings: Compound concentration 1000.0 nM
[2] = system: Tyrosine-protein kinase ABL1 (Homo sapiens), P00519 [H396P]; settings: Compound concentration 1000.0 nM
[3] = system: Tyrosine-protein kinase ABL1 (Homo sapiens), P00519 [T315I]; settings: Compound concentration 1000.0 nM
[4] = biological target: Activin receptor type-2B (Homo sapiens) (UniProt Q13705); settings: Compound concentration 1000.0 nM
[5] = biological target: 5'-AMP-activated protein kinase catalytic subunit alpha-2 (Homo sapiens) (UniProt P54646); settings: Compound concentration 1000.0 nM
[6] = biological target: Aurora kinase B (Homo sapiens) (UniProt Q96GD4); settings: Compound concentration 1000.0 nM
[7] = biological target: Bone morphogenetic protein receptor type-1B (Homo sapiens) (UniProt O00238); settings: Compound concentration 1000.0 nM
[8] = biological target: Bone morphogenetic protein receptor type-2 (Homo sapiens) (UniProt Q13873); settings: Compound concentration 1000.0 nM
[9] = biological target: Cyclin-dependent kinase 8 (Homo sapiens) (UniProt P49336); settings: Compound concentration 1000.0 nM
[10] = biological target: Dual specificity protein kinase CLK2 (Homo sapiens) (UniProt P49760); settings: Compound concentration 1000.0 nM
[11] = biological target: Dual specificity protein kinase CLK3 (Homo sapiens) (UniProt P49761); settings: Compound concentration 1000.0 nM
[12] = biological target: Tyrosine-protein kinase CSK (Homo sapiens) (UniProt P41240); settings: Compound concentration 1000.0 nM
[13] = biological target: Casein kinase I isoform alpha-like (Homo sapiens) (UniProt Q8N752); settings: Compound concentration 1000.0 nM
[14] = biological target: Ephrin type-A receptor 5 (Homo sapiens) (UniProt P54756); settings: Compound concentration 1000.0 nM
[15] = biological target: Ephrin type-A receptor 6 (Homo sapiens) (UniProt Q9UF33); settings: Compound concentration 1000.0 nM
[16] = biological target: Ephrin type-B receptor 2 (Homo sapiens) (UniProt P29323); settings: Compound concentration 1000.0 nM
[17] = biological target: Ephrin type-B receptor 4 (Homo sapiens) (UniProt P54760); settings: Compound concentration 1000.0 nM
[18] = biological target: Ephrin type-B receptor 6 (Homo sapiens) (UniProt O15197); settings: Compound concentration 1000.0 nM
[19] = biological target: Receptor tyrosine-protein kinase erbB-2 (Homo sapiens) (UniProt P04626); settings: Compound concentration 1000.0 nM
[20] = biological target: Mitogen-activated protein kinase 7 (Homo sapiens) (UniProt Q13164); settings: Compound concentration 1000.0 nM
[21] = system: Receptor-type tyrosine-protein kinase FLT3 (Homo sapiens), P36888 [UNDEFINED MUTATION]; settings: Compound concentration 1000.0 nM
[22] = system: Receptor-type tyrosine-protein kinase FLT3 (Homo sapiens), P36888 [R834Q]; settings: Compound concentration 1000.0 nM
[23] = biological target: Glycogen synthase kinase-3 alpha (Homo sapiens) (UniProt P49840); settings: Compound concentration 1000.0 nM
[24] = biological target: Tyrosine-protein kinase JAK1 (Homo sapiens) (UniProt P23458); settings: Compound concentration 1000.0 nM
[25] = biological target: Tyrosine-protein kinase JAK1 (Homo sapiens) (UniProt P23458); settings: Compound concentration 1000.0 nM; remark: listed apart in the source
[26] = system: Mast/stem cell growth factor receptor Kit (Homo sapiens), P10721 [D816V]; settings: Compound concentration 1000.0 nM
[27] = biological target: Tyrosine-protein kinase Lck (Homo sapiens) (UniProt P06239); settings: Compound concentration 1000.0 nM
[28] = biological target: MAP/microtubule affinity-regulating kinase 4 (Homo sapiens) (UniProt Q96L34); settings: Compound concentration 1000.0 nM
[29] = system: Hepatocyte growth factor receptor (Homo sapiens), P08581 [Y1235D]; settings: Compound concentration 1000.0 nM
[30] = biological target: Myosin light chain kinase 2, skeletal/cardiac muscle (Homo sapiens) (UniProt Q9H1R3); settings: Compound concentration 1000.0 nM
[31] = biological target: Phosphorylase b kinase gamma catalytic chain, skeletal muscle/heart isoform (Homo sapiens) (UniProt Q16816); settings: Compound concentration 1000.0 nM
[32] = biological target: Phosphatidylinositol 4,5-bisphosphate 3-kinase catalytic subunit alpha isoform (Homo sapiens) (UniProt P42336); settings: Compound concentration 1000.0 nM
[33] = biological target: Protein kinase C theta type (Homo sapiens) (UniProt Q04759); settings: Compound concentration 1000.0 nM
[34] = biological target: Protein-tyrosine kinase 2-beta (Homo sapiens) (UniProt Q14289); settings: Compound concentration 1000.0 nM
[35] = biological target: SRSF protein kinase 3 (Homo sapiens) (UniProt Q9UPE1); settings: Compound concentration 1000.0 nM
[36] = biological target: Serine/threonine-protein kinase TAO2 (Homo sapiens) (UniProt Q9UL54); settings: Compound concentration 1000.0 nM
[37] = biological target: Tyrosine-protein kinase Tec (Homo sapiens) (UniProt P42680); settings: Compound concentration 1000.0 nM
[38] = biological target: Serine/threonine-protein kinase tousled-like 1 (Homo sapiens) (UniProt Q9UKI8); settings: Compound concentration 1000.0 nM
[39] = biological target: Testis-specific serine/threonine-protein kinase 1 (Homo sapiens) (UniProt Q9BXA7); settings: Compound concentration 1000.0 nM
[40] = biological target: Testis-specific serine/threonine-protein kinase 3 (Homo sapiens) (UniProt Q96PN8); settings: Compound concentration 1000.0 nM
[41] = biological target: Phosphatidylinositol 3-kinase catalytic subunit type 3 (Homo sapiens) (UniProt Q8NEB9); settings: Compound concentration 1000.0 nM
[42] = biological target: Serine/threonine-protein kinase VRK2 (Homo sapiens) (UniProt Q86Y07); settings: Compound concentration 1000.0 nM
[43] = biological target: 5-hydroxytryptamine receptor 1D (Homo sapiens) (UniProt P28221); settings: Compound concentration 10.0 uM
[44] = biological target: Sodium-dependent serotonin transporter (Homo sapiens) (UniProt P31645); settings: Compound concentration 10.0 uM
[45] = biological target: Histamine H2 receptor (Homo sapiens) (UniProt P25021); settings: Compound concentration 10.0 uM

Sequence of Tyrosine-protein kinase JAK1 (Homo sapiens) (P23458 whole entry): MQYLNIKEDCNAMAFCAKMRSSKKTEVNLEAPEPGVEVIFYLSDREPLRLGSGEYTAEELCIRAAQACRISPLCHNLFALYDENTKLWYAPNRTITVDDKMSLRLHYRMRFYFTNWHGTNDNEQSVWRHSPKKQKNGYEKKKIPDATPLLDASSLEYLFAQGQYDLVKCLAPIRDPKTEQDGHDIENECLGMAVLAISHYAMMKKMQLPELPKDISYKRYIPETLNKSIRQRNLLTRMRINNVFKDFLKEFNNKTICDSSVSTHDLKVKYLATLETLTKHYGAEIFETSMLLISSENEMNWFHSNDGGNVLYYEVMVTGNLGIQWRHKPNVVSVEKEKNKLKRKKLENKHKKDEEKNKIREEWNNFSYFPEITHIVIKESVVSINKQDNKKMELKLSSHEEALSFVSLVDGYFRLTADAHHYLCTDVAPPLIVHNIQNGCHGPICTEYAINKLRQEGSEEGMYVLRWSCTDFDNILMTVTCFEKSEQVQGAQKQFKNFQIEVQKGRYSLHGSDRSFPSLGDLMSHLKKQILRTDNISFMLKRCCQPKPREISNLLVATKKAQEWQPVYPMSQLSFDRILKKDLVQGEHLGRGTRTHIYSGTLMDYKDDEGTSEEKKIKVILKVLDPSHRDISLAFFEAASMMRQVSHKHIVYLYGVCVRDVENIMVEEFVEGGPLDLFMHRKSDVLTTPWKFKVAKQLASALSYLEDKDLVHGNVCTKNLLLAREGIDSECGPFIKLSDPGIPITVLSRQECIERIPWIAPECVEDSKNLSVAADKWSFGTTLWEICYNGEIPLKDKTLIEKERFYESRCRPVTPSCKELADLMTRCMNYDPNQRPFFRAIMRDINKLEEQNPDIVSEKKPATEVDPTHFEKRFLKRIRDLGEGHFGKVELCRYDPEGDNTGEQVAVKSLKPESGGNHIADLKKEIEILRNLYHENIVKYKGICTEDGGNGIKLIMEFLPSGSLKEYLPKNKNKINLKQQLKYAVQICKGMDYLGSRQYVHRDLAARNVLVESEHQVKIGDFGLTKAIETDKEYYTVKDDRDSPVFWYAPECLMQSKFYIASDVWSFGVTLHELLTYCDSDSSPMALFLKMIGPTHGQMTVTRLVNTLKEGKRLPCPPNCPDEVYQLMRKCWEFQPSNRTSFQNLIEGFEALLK
Sequence of Bone morphogenetic protein receptor type-2 (Homo sapiens) (Q13873 whole entry): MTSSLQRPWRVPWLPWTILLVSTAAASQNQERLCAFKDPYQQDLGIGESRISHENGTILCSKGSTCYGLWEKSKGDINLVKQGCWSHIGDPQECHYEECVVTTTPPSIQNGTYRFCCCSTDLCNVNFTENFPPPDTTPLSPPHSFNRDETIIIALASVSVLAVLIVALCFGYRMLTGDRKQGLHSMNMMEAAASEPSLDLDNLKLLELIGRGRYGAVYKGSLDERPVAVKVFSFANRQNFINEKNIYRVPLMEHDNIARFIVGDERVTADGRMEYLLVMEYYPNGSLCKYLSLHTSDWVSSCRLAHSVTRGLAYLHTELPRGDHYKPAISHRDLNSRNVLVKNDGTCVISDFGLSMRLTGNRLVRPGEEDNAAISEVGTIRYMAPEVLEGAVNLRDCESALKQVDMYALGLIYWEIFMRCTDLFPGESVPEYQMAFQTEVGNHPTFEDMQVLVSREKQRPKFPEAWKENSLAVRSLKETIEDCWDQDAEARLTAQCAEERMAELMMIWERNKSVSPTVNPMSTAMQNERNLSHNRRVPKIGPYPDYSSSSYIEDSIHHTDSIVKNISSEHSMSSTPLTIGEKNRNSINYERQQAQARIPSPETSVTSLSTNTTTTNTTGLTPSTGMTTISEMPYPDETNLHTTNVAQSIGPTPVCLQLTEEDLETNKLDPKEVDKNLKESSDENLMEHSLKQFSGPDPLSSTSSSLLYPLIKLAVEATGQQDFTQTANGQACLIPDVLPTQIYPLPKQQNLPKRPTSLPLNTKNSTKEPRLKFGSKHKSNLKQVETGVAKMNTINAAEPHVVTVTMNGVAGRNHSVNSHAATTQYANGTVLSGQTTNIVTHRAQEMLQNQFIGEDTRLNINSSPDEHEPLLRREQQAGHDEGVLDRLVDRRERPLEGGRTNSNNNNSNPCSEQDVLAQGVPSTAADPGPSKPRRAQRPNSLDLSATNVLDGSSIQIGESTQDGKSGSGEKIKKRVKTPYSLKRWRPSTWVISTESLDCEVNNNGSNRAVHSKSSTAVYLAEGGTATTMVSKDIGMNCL
Sequence of Ephrin type-A receptor 6 (Homo sapiens) (Q9UF33 whole entry): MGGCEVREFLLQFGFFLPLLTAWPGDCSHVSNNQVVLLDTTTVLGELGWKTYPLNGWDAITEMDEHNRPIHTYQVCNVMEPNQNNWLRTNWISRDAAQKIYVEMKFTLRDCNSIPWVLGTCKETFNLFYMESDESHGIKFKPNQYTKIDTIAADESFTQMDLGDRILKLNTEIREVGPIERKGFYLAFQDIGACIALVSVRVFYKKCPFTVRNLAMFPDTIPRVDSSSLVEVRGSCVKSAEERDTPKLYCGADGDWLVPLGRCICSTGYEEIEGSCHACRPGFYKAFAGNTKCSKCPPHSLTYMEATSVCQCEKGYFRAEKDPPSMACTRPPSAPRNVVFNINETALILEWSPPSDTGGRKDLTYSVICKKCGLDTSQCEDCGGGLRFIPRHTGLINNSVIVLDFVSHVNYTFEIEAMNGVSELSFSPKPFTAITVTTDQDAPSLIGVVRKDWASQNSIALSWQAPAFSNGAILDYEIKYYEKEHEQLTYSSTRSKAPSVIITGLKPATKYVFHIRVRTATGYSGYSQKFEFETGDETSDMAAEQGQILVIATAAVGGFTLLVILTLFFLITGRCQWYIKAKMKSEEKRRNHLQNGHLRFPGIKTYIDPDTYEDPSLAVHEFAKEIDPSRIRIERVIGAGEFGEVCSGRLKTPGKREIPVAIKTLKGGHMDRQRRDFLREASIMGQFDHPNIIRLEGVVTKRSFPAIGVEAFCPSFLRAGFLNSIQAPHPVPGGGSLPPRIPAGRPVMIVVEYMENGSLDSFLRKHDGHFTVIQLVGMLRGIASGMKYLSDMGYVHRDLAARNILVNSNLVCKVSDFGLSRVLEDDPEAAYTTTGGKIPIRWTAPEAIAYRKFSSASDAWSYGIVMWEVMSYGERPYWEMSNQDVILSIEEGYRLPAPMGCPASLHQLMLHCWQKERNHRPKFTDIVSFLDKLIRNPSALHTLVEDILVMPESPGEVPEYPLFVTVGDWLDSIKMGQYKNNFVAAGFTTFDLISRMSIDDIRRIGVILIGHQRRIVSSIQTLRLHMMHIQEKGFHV
Sequence of MAP/microtubule affinity-regulating kinase 4 (Homo sapiens) (Q96L34 whole entry): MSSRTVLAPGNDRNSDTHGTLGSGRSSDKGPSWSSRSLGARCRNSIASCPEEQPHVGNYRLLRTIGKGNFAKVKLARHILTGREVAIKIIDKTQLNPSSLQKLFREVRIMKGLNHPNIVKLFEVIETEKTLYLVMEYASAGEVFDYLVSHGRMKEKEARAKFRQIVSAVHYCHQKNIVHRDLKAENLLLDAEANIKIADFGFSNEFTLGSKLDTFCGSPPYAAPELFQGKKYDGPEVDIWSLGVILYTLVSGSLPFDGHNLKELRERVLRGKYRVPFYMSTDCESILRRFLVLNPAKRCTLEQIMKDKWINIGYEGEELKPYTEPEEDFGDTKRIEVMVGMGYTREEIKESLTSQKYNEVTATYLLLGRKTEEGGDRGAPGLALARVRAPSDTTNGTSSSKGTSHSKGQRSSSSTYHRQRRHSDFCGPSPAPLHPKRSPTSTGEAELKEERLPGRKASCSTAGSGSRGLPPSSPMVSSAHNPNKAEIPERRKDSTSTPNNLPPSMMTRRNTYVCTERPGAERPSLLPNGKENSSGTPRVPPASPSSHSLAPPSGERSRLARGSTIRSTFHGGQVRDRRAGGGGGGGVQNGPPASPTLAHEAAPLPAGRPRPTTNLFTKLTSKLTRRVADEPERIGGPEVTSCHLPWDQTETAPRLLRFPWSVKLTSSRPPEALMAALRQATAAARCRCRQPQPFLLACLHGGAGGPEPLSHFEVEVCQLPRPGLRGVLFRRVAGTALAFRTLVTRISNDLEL
Sequence of Mast/stem cell growth factor receptor Kit (Homo sapiens), P10721 [D816V] (P10721 whole entry D816V): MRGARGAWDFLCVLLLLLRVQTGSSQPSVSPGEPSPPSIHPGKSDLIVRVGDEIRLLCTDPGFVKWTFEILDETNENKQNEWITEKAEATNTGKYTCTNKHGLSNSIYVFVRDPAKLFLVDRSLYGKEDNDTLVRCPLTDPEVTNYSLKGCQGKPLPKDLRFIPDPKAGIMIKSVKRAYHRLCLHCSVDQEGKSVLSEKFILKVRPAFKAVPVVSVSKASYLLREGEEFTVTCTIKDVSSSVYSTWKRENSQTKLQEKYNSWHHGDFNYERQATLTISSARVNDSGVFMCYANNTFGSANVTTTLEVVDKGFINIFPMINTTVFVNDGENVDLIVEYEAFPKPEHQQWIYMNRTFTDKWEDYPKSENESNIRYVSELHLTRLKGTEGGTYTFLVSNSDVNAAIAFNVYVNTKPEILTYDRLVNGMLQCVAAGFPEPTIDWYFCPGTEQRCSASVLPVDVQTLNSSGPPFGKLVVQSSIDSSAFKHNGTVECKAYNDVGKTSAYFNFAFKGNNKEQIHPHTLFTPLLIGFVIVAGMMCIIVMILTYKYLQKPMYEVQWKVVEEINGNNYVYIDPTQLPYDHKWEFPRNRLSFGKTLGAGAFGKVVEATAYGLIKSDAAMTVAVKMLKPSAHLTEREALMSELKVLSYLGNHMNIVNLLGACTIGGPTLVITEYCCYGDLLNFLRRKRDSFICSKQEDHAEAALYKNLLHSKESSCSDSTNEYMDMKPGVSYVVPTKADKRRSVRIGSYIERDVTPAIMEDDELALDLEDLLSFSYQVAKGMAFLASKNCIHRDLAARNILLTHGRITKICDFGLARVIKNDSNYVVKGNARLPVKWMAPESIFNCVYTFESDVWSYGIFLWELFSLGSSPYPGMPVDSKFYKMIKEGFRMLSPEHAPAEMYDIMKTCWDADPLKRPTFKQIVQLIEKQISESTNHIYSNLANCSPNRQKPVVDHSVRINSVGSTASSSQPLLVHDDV

C[C@@H](c1cccc(C#N)c1)n1cc(Cl)cc(C(N)=O)c1=N [(S)-9s]
inactive: residual activity [1] 85% | residual activity [2] 54% | residual activity [4] 100% | residual activity [5] 96% | residual activity [6] 100% | residual activity [7] 89% | residual activity [8] 100% | residual activity [9] 92% | residual activity [10] 100% | residual activity [11] 100% | residual activity [12] 97% | residual activity [13] 82% | residual activity [14] 96% | residual activity [15] 91% | residual activity [16] 80% | residual activity [17] 96% | residual activity [18] 100% | residual activity [19] 96% | residual activity [20] 88% | residual activity [21] 96% | residual activity [22] 100% | residual activity [23] 82% | residual activity [24] 94% | residual activity [25] 93% | residual activity [26] 94% | residual activity [27] 90% | residual activity [28] 100% | residual activity [29] 100% | residual activity [30] 100% | residual activity [31] 100% | residual activity [32] 100% | residual activity [33] 86% | residual activity [34] 87% | residual activity [35] 100% | residual activity [36] 84% | residual activity [37] 88% | residual activity [38] 100% | residual activity [39] 100% | residual activity [40] 100% | residual activity [41] 97% | residual activity [42] 85% | inhibition [43] 3.77% | inhibition [44] 14.8% | inhibition [45] 8.25%
active: residual activity [3] 0%

C[C@H](c1cccc(C#N)c1)n1cc(Cl)cc(C(N)=O)c1=N [(R)-9s]
inactive: residual activity [1] 75% | residual activity [2] 55% | residual activity [3] 96% | residual activity [4] 100% | residual activity [5] 94% | residual activity [6] 100% | residual activity [7] 94% | residual activity [8] 97% | residual activity [9] 100% | residual activity [10] 100% | residual activity [11] 100% | residual activity [12] 100% | residual activity [13] 92% | residual activity [14] 96% | residual activity [15] 86% | residual activity [16] 66% | residual activity [17] 89% | residual activity [18] 87% | residual activity [19] 100% | residual activity [20] 88% | residual activity [21] 100% | residual activity [22] 100% | residual activity [23] 61% | residual activity [24] 57% | residual activity [25] 92% | residual activity [26] 87% | residual activity [27] 100% | residual activity [28] 99% | residual activity [29] 100% | residual activity [30] 100% | residual activity [31] 100% | residual activity [32] 92% | residual activity [33] 97% | residual activity [34] 100% | residual activity [35] 100% | residual activity [36] 82% | residual activity [37] 100% | residual activity [38] 94% | residual activity [39] 96% | residual activity [40] 100% | residual activity [41] 78% | residual activity [42] 79% | inhibition [43] 34.1% | inhibition [44] 9.99% | inhibition [45] 10.8%
